{
  "source": "patent US4743614A",
  "about": "“Amino acid derivatives and processes for preparation thereof” (Fujisawa Pharmaceutical Co., Ltd., priority 1985, dated 1988)",
  "key": {"[1]": {"system": "colony forming abilities of bone marrow cells (CFU-c)", "test": "Restorative effect on suppressed colony forming abilities of bone marrow cells in immunodeficient hosts (mitomycin C-treated mice)", "assay_type": "in vivo, BDF1 mice", "conditions": "mitomycin C 1 mg/kg for 2 days, day 9, n = 7-9, **P < 0.01", "experimental": "Restorative effect on suppressed colony forming abilities of bone marrow cells in immunodeficient hosts: BDF1 mice (female, 8 weeks aged) were obtained from Shizuoka Agricultural Cooperative Association for Laboratory Animal, Hamamatsu, Japan. The mice were intraperitoneally injected with mitomycin C (1 mg/kg) every day for 2 days and FR-900490 was also administered to mice intraperitoneally every day for 5 days. At 9th day after first administration of mitomycin C, mice were sacrificed and the colony forming abilities of bone marrow cells (CFU-c) were measured. The schedule of the above test is shown below. [drawing 6] Femoral marrow was harvested from mice by flushing the bone cavity with α-Minimum Essential Medium (α-MEM) supplemented with penicillin G (100 units/ml), streptomycin (100 μg/ml) and 5% fetal bovine serum (FBS). The bone marrow cells were pelleted by centrifugation (500×g, 10 minutes) and resuspended in enriched α-MEM. Mononuclear cells were counted in a hemocytometer and the cells were diluted to 1 ×10^5 cells/ml. Then, 1 ml of bone marrow cells, 1 ml of FBS, 2 ml of 2.2% methyl cellulose in α-MEM and 1 ml of L-929 cell conditioned medium were added to a sterilized tube and mixed by use of automatic mixer. One ml of mixture was plated in 35 mm plastic petri dish and incubated for 7 days in a fully humidified atmosphere of 5% CO2 in air. Triplicate plates were prepared for each experiment. Colonies composed of 50 or more cells were scored on an inverted microscope."}, "[2]": {"system": "B-16 melanoma", "test": "Inhibitory activity for tumor metastasis", "assay_type": "in vivo, BDF1 mice", "conditions": "14th day after B-16 melanoma injection, n = 10, **P < 0.01", "experimental": "Inhibitory activity for tumor metastasis\nB-16 Melanoma cells were grown in a Roswel park memorial Institute (RPMI)-1640 medium supplemented with penicillin G (100 units/ml), streptomycin (100 μg/ml) and 10% FBS to subsconfiluency, and the monolayers were rinsed with an aqueous solution of trypsin. Hanks' balanced salt (HBS) solution (Ca-Mg-free) containing the antibiotics described above was added to the monolayers and the monolayer was dislodged by gentle pipetting, and the cells were washed with HBS solution containing the antibiotics described above by centrifugation. The cells were resuspended in HBS solution containing the antibiotics described above and kept at cold temperature. BDF1 mice (female, 8 weeks aged) were injected intravenously with 2×10^5 cells of B-16 melanoma in 0.2 ml of HBS solution containing the antibiotics described above. FR-900490 was intraperitoneally administered once a day at one day and two days before and at one day and four days after the injection of B-16 melanoma. At 14th day after injection of B-16 melanoma, the mice were killed, and the lungs were removed, rinsed in distilled water containing heparin and the number of tumor foci was determined by counting the surface colonies under a dissecting microscope.\nThe schedule of the above test is shown. [drawing 7]"}, "[3]": {"system": "direct plaque forming cells (PFC-SRBC)", "test": "Restorative effect on suppressed antibody forming abilities in immunodeficient hosts", "assay_type": "in vivo, BDF1 mice", "experimental": "Restorative Effect on Suppressed Antibody Forming Abilities in Immunodeficient Hosts\nBDF1 mice (female, 8 weeks aged) were injected intraperitoneally with Mitomycin C (1 mg/kg) from four days before immunization with 5×10^8 Sheep Red Blood Cells (SRBC), every day for three days. Test samples also were administered to mice intraperitoneally from four days before immunization, every day for five days. At day 9, mice were sacrificed and the number of direct plaque forming cells per spleen (PFC-SRBC/spleen) was measured by using Cunningham modification method.\nThe schedule of the above test is shown. [drawing 8]"}, "[4]": {"test": "Solubility", "assay_type": "physicochemical"}},
  "data": [
    {"smiles": "C[C@@H](N[C@@H](Cc1c[nH]cn1)C(=O)O)[C@H](NC(=O)[C@@H](N)CC(N)=O)C(=O)O", "note": "[FR-900490, (2S,3R)-2-[[(2S)-2-amino-3-carbamoylpropionyl]amino]-3-[[(1S)-1-carboxy-2-(4-imidazolyl)ethyl]amino]butyric acid]", "values": [
      {"measurement": "CFU-c (mean ± SE)", "setting": "[1]; 1 mg/kg i.p. every day for 5 days", "result": "59.3 ± 2.86"},
      {"measurement": "CFU-c (mean ± SE)", "setting": "[1]; 10 mg/kg i.p. every day for 5 days", "result": "70.4 ± 6.9"},
      {"measurement": "CFU-c (mean ± SE)", "setting": "[1]; 100 mg/kg i.p. every day for 5 days", "result": "57.2 ± 2.51"},
      {"measurement": "No. of colonies on the lung mean ± SE", "setting": "[2]; 1 mg/kg i.p.", "result": "39.7 ± 6.4"},
      {"measurement": "No. of colonies on the lung mean ± SE", "setting": "[2]; 10 mg/kg i.p.", "result": "23.4 ± 3.3"},
      {"measurement": "No. of colonies on the lung mean ± SE", "setting": "[2]; 100 mg/kg i.p.", "result": "77.9 ± 27.4"},
      {"measurement": "PFC-SRBC/spleen (average number of 5 mice/group)", "setting": "[3]; 3 mg/kg i.p., mitomycin C-treated", "result": "14.96 × 10^4 PFC-SRBC/spleen"},
      {"measurement": "PFC-SRBC/spleen (average number of 5 mice/group)", "setting": "[3]; 10 mg/kg i.p., mitomycin C-treated", "result": "17.49 × 10^4 PFC-SRBC/spleen"},
      {"measurement": "PFC-SRBC/spleen (average number of 5 mice/group)", "setting": "[3]; 30 mg/kg i.p., mitomycin C-treated", "result": "16.30 × 10^4 PFC-SRBC/spleen"},
      {"measurement": "PFC-SRBC/spleen (average number of 5 mice/group)", "setting": "[3]; 100 mg/kg i.p., animals not administered mitomycin C", "result": "16.83 × 10^4 PFC-SRBC/spleen"},
      {"measurement": "PFC-SRBC/spleen (average number of 5 mice/group)", "setting": "[3]; 100 mg/kg i.p., mitomycin C-treated", "result": "21.12 × 10^4 PFC-SRBC/spleen"},
      {"measurement": "Solubility", "setting": "[4]; Ethyl acetate", "result": "Insoluble"},
      {"measurement": "Solubility", "setting": "[4]; Methanol", "result": "Sparingly soluble"},
      {"measurement": "Solubility", "setting": "[4]; Water", "result": "Soluble"},
      {"measurement": "Solubility", "setting": "[4]; acetone", "result": "Insoluble"},
      {"measurement": "Solubility", "setting": "[4]; chloroform", "result": "Insoluble"},
      {"measurement": "Solubility", "setting": "[4]; ethanol", "result": "Sparingly soluble"}
    ]}
  ]
}
